Data on one compound can be found in patent publication US7829723B2, “Polymorphic forms of (S)-1-cyanobutan-2-yl (S)-1-(3-3-(3-methoxy-4-(oxazol-5-yl)phenyl)uriedo)phenyl)ethylcarbamate” (Vertex Pharmaceuticals Incorporated, priority 2005, dated 2010).

Molecules are shown by their SMILES. Values after ≈ are worked out from the molar mass of the structure shown. Some results are limits rather than exact numbers.

Data set [1] in a line: Solubility of Compound 1 at room temperature in various solvents and solvent mixtures. Type of data set: physicochemical.
Data set [2] is described as follows: Solubility of Compound 1 at elevated temperatures in various solvents. Type of data set: physicochemical. The conditions noted are these: organic solvent or mixture.

`CC[C@@H](CC#N)OC(=O)N[C@@H](C)c1cccc(NC(=O)Nc2ccc(-c3cnco3)c(OC)c2)c1` [Compound 1, (S)-1-cyanobutan-2-yl (S)-1-(3-(3-(3-methoxy-4-(oxazol-5-yl)phenyl)ureido)phenyl)ethylcarbamate]: the solubility in data set [1] (aqueous with cosolvent or surfactant or cyclodextrin, solvent Acetone:H2O 20:80) is under 8.9 mg/mL; in data set [1] (organic solvent or mixture, solvent 2-Butanone (MEK)), 10.5 mg/mL (≈ 22 mM); in data set [1] (organic solvent or mixture, solvent Acetone), 11 mg/mL (≈ 23 mM); in data set [1] (organic solvent or mixture, solvent Acetonitrile), 1.6 mg/mL (≈ 3.35 mM); in data set [1] (organic solvent or mixture, solvent EtOH), 1.6 mg/mL (≈ 3.35 mM); in data set [1] (organic solvent or mixture, solvent THF), 35 mg/mL (≈ 73.3 mM). For the same compound, the solubility in data set [2] (solvent Acetone, 40° C.) amounted to 61 mg/mL (≈ 128 mM); in data set [2] (solvent Acetone, Boiling point (56° C.)) it was 67 mg/mL (≈ 140 mM); in data set [2] (solvent MeOH, 40° C.), 33 mg/mL (≈ 69.1 mM); in data set [2] (solvent MeOH, 50° C.), 36 mg/mL (≈ 75.4 mM); in data set [2] (solvent MeOH, Boiling point (65° C.)), 92 mg/mL (≈ 193 mM); in data set [2] (solvent THF, 40° C.), 75 mg/mL (≈ 157 mM). The solubility in data set [2] (solvent THF, Boiling point (65° C.)) is 115 mg/mL (≈ 241 mM); in data set [2] (solvent Toluene, 50° C.), under 2.3 mg/mL; in data set [2] (solvent t-Butyl methyl ether (MTBE), 45° C.) it was under 10.4 mg/mL.

A word on the solubility: it is how much of the substance goes into solution per volume.
